From article PMC3591309, “Deoxyhypusine Hydroxylase from Plasmodium vivax, the Neglected Human Malaria Parasite: Molecular Cloning, Expression and Specific Inhibition by the 5-LOX Inhibitor Zileuton” (PLoS ONE, 2013)

Target: T1, Deoxyhypusine hydroxylase (DOHH) (Plasmodium vivax, UniProt A5JZ19)
T1 construct: full-length ORF of 346 amino acids, histidine-tagged, expressed in E. coli BL21(DE3) (pET-28a)
T1 sequence (A5JZ19 1-346): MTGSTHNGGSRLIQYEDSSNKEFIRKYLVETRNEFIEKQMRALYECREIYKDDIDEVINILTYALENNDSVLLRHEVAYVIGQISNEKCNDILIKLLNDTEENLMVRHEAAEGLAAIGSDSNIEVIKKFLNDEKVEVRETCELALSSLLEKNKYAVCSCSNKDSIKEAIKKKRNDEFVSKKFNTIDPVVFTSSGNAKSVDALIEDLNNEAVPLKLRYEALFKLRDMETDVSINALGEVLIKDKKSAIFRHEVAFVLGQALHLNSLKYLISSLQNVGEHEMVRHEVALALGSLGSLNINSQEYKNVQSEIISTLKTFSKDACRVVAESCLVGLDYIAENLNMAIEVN
Test: recombinant DOHH activity assay with eIF-5A(Dhp) substrate; radioactive filter assay and GC/MS, dose-response
Assay type: biochemical

For `CC(c1cc2ccccc2s1)N(O)C(N)=O` (racemic) [zileuton, (RS)-1-(1-Benzothiophen-2-ylethyl)-1-hydroxyurea], the IC50 was 12,5 nmol.
